According to PubChem BioAssay (NCI):
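Grown in 96-well plates, cells were treated for 48 hours with each compound at five concentrations. Insufficient inhibition: endpoint recorded as highest concentration tested. At the TGI there is no net growth.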

Key:
Assay in all cases: NCI tumour cell line growth inhibition, 48 h
[1] = test system: MDA-N
[2] = test system: HT29 colon
[3] = test system: COLO 205 colon
[4] = test system: DU-145 prostate
[5] = test system: HCT-15 colon
[6] = test system: HS 578T breast
[7] = test system: NCI-H522 lung
[8] = test system: T-47D breast
[9] = test system: 786-0 renal
[10] = test system: SK-MEL-28 melanoma
[11] = test system: MOLT-4 leukemia
[12] = test system: ACHN renal
[13] = test system: HOP-62 NSCLC
[14] = test system: HCT-116 colon
[15] = test system: SF-268 CNS
[16] = test system: KM12 colon
[17] = test system: NCI-H23 lung
[18] = test system: MALME-3M melanoma
[19] = test system: SN12C renal
[20] = test system: BT-549 breast
[21] = test system: SF-295 CNS
[22] = test system: SK-OV-3 ovarian
[23] = test system: SK-MEL-5 melanoma
[24] = test system: K-562 leukemia
[25] = test system: NCI/ADR-RES ovarian
[26] = test system: CAKI-1 renal
[27] = test system: A498 renal
[28] = test system: MDA-MB-435
[29] = test system: NCI-H226 lung
[30] = test system: A549 NSCLC
[31] = test system: MDA-MB-231 breast
[32] = test system: SNB-19 CNS
[33] = test system: SW-620 colon
[34] = test system: IGROV1 ovarian
[35] = test system: RXF 393 renal
[36] = test system: PC-3 prostate
[37] = test system: OVCAR-8 ovarian
[38] = test system: SR leukemia
[39] = test system: CCRF-CEM leukemia
[40] = test system: UACC-62 melanoma
[41] = test system: OVCAR-3 ovarian
[42] = test system: MCF7 breast
[43] = test system: HCC-2998 colon
[44] = test system: NCI-H460 lung
[45] = test system: LOX IMVI melanoma
[46] = test system: U251 CNS
[47] = test system: SK-MEL-2 melanoma
[48] = test system: OVCAR-4 ovarian
[49] = test system: OVCAR-5 ovarian
[50] = test system: UO-31 renal
[51] = test system: RPMI-8226 leukemia
[52] = test system: SNB-75 CNS
[53] = test system: M14 melanoma
[54] = test system: EKVX NSCLC
[55] = test system: HL-60(TB) leukemia
[56] = test system: SF-539 CNS
[57] = test system: TK-10 renal
[58] = test system: UACC-257 melanoma
[59] = test system: HOP-92 NSCLC

Measured: TGI

CCOC(=O)c1ccc(C(=O)/C(C#N)=C2\CCCN2)n1C
not listed: [56] | [57] | [58] | [59]
> 100 µM: all other assays above

O=C(O)CCC1(C(=O)O)CCC(=O)c2ccccc21 (configuration not stated)
not listed: [11] | [54]
> 100 µM: all other assays above
